Laboratory results: patent publication US6531454B1, “Glycosylated polyamines and methods of use therefor” (The Regents of the University of California, priority 1999, dated 2003)

Legend:
Format in all cases: cell-based
[1] = test system: MDA-MB-435 cells; experiment: In vitro tumor cell growth inhibition (cytotoxicity assay), breast cancer cell line; settings: MDA-MB-435 breast cancer cells
Procedure: (§1) Cytotoxicity may be measured using a standard methodology for adherent cell lines such as the microculture tetrazolium assay (MTT). Details of this assay have been published (Alley, M C et al, Cancer Research 48:589-601, 1988). Exponentially growing cultures of tumor cells such as the HT-29 colon carcinoma or LX-1 lung tumor can be used to make microtiter plate cultures. Cells can be seeded at 5000-20,000 cells per well in 96-well plates (in 150 μl of media), and grown overnight at 37° C. Test compounds are added, in 10-fold dilutions varying from 10^−4 M to 10^−10 M.
(§2) Cells are then incubated for 48-72 hours. To determine the number of viable cells in each well, the MTT dye is added (50 μl of 3 mg/ml solution of 3-(4,5-dimethylthiazol-2-yl)-2,5-diphenyltetrazolium bromide in saline). This mixture is incubated at 37° C. for 5 hours, and then 50 μl of 25% SDS, pH 2 is added to each well. After an overnight incubation, the absorbance of each well at 550 mn is read using an ELISA reader. The values for the mean+/−SD of data from quadruplicate wells are calculated, using standard formula as for the %T/C (%viable cells treated/control). Additional methods as described by Inhibition of the growth of tumor cells was determined as described by Patil, S. D., et al J. Med. Chem., 32, 1284 (1989) may be used as well.
(§3) The concentration of test compound which gives a T/C of 50% growth inhibition is designated as the IC50.
(§4) Typically, the cells are grown in RPMI 1640 medium supplemented with 10 nM calcium leucovorin instead of folic acid as the folate source, 10% dialyzed fetal calf serum, penicillin and streptomycin. Additional ingredients may be added depending on the particular needs of the cells being cultured. […]
(§5) Cells are seeded into 96-well plates using a pipeting mechanism such as Perkin-Elmer Pro/pette. […] Inhibition of cell growth may be measured using the MTT dye reduction assay as described above.

[2] = test system: CAKI-1 renal cancer cell lines; experiment: In vitro tumor cell growth inhibition (cytotoxicity assay), renal cancer cell line; settings: CAKI-1 renal cancer cells
Procedure: as §1, §2, §3, §4, §5

[3] = test system: OVCAR-4 ovarian carcinoma cell lines; experiment: In vitro tumor cell growth inhibition (cytotoxicity assay), ovarian carcinoma cell line; settings: OVCAR-4 ovarian carcinoma cells
Procedure: as §1, §2, §3, §4, §5

[4] = test system: KM12 colon cancer cell lines; experiment: In vitro tumor cell growth inhibition (cytotoxicity assay), colon cancer cell line; settings: KM12 colon cancer cells
Procedure: as §1, §2, §3, §4, §5

[5] = Homo sapiens, read-out: LC50 (the source's name)

## Cl.OCC1OC(NCCNCCNC2OC(CO)C(O)C(O)C2O)C(O)C(O)C1O [Compound 1, 1,3-N,N-di-β-D-glucopyranosyl-diethylenetriamine]
[1]; Homo sapiens, read-out: GI50 (inhibited growth by 50%)
  GI50: 1.72 µM
[1]; Homo sapiens, read-out: LC50 (lethal concentration to kill 50% of the cells)
  LC50: ~6 µM
[1]
  Total growth inhibition (TGI): 3.23 µM
[2]
  TGI: about 10 μM
[2]; Homo sapiens
  GI50: 3.1 µM
[2]; [5]
  CC50: 30 µM
[3]; Homo sapiens
  GI50: 1.63 µM
[3]; [5]
  CC50: ~7.7 µM
[3]
  TGI: about 3.5 μM
[4]; Homo sapiens
  GI50: ~10 µM
[4]; [5]
  CC50: ~48 µM
[4]
  TGI: about 22 μM
